Laboratory results: patent US9125862B2, “Methods for the treatment of Prader-Willi-like syndrome or non-organic failure to thrive (NOFITT) feeding disorder using an agonist of the oxytocin receptor” (Institut National de la Sante et de la Rechereche Medicale …, priority 2010, dated 2015)

Columns and labels:
Magel2 KO neonates = assay: Injection of oxytocin or vasopressin in Magel2 KO neonates: rescue of feeding and survival; format: in vivo, mouse; conditions: AVP injections, whatever the dose injected
Procedure: Three to 5 hours after delivery, wild type pups or pups issued from a cross between an heterozygote (+/−) male with wild type females were temporally removed (10 min) from their mother, weighted and given a single s.c. (in the ventral region at the level of floating ribs) injection (20 μl) of isotonic saline or 2 μg oxytocin (Phoenix Pharmaceuticals. Inc., Catalog No. 051-01) dissolved in isotonic saline (20 μl). […] Following the same protocol, we injected vasopressin (Phoenix Pharmaceuticals. Inc., Catalog No. 065-07) at different doses. At P2, pups were scarified to be genotyped.
The results obtained with the injection of SSR 126768A OTA let us think that we might restore a normal feeding behaviour in Magel2 KO newborns with an OT injection just after birth. Early neonatal manipulation of OT was reported in the literature without alterations of the postnatal development (Cushing, B. S., et Al., 2003; Yamamoto, Y., et al., 2004; Saito, O., et Al., 2007). Initially, 28 wild type newborns were injected with an isotonic saline (20 μl) and 4 of them died at P1. Another cohort of 28 wild type newborns, […] on hypothalamic nuclei one hour after the injection (Cushing, B. S., et Al., 2003; Yamamoto, Y., et al., 2004). We then decided to inject 2 μg of OT in Magel2 KO and wild type newborns, 3 to 5 hours after birth, the time when wild type newborns started to suckle but not the mutant neonates. […] The level of lethality is similar after an injection of saline solution (4/28 dead pups) or oxytocin (3/28 dead pups) and is in the range of lethality normally observed in wild type cohorts. In a second step, ten litters including a total of 37 wild type and 40 Magel2 KO neonates, were injected with an oxytocin solution. At P2, we observed that 95% (35/37) of wild type and 93% (37/40) of Magel2 mutant newborns survived with milk previously detected in their stomach at P1. In parallel, we controlled that the rescue of Magel2 KO neonates was specifically due to the oxytocin injection and not to the injection stress and/or handling of neonates. […]

rats = conditions: cited from earlier work
[1] = tested on: wild-type C57Bl6/J newborns; assay: Injection of SSR126768A (antagonist of the oxytocin receptor) in wild type newborns: feeding and lethality; format: in vivo, mouse
Procedure: A first cohort of C57B16 wild type newborns were removed from their mothers 1-1h30 after their birth and very rapidly were given a single s.c. injection (20 μl) of vehicle control (0.2% ethanol in distilled water) or 3 μg (in 20 μl of 0.2% ethanol in distilled water) of SSR126768A (OTA). […] of C57B16 wild type newborns were injected 12-24 hours after birth. The dose of OTA used was based on previous publications (Serradeil-Le Gal, C., et al., 2004).
We chose to use the Oxytocin antagonist SSR126768A (a gift from C. Serradeil-Le Gal, Sanofi-Synthélabo Recherche, Toulouse, France) because it was already well characterized.
Taking in account all the previous data, we hypothesized that OT deficiency might be responsible for the Magel2 KO phenotype at birth. Consequently, we decided to inject the SSR 126768A compound, a specific OT antagonist (OTA) with high affinity with the OT receptor (Serradeil-Le Gal, C., et al., 2004). We proceeded to a single injection of 3 μg (20 μl) in 68 wild-type C57B16/J newborns (9 litters), 1 to 1.5 hour after birth. In parallel, in the same conditions, we injected the vehicle […] in 48 wild-type C57B16/J newborns (7 litters). Then, 12 (+/−3) hours after the injection time, we observed than 54% (37/68) of newborns injected with OTA had no milk in their stomach versus 4% (2/48) of newborns injected with vehicle. At P1 (24-36 h old), we observed than 48% (33/68) of newborns injected with OTA were dead versus 4% (2/48) of newborns injected with vehicle control. […] Thus, the SSR 126768A OTA at a dose of 3 μg appeared to have a specific effect, preventing the feeding process and leading to death, only when it was injected in a specific window of time after birth, before the suckling activity was initiated. This phenotype simulates the Magel2 KO feeding phenotype at birth.

OTR = conditions: cited from earlier work

Compound	rescue of the phenotype of Magel2 deficient neonates (Magel2 KO neonates)	lethality or secondary effect (rats; 1, 3 or 10 μg/g in rats)	duration of effect on uterus (rats; after administration of a dose as low as 3 μg/g) [h]	survival 48 hours later ([1]; 3 μg in 20 μl injected 12-24 hours after birth, 42 wild-type pups)	newborns dead at P1 ([1]; single s.c. injection of 3 μg, 1 to 1.5 hour after birth, P1 (24-36 h old), vehicle 4% (2/48)) [%]	newborns with no milk in their stomach ([1]; single s.c. injection of 3 μg, 1 to 1.5 hour after birth, observed 12 (+/−3) hours after injection, vehicle 4% (2/48)) [%]	selectivity (OTR)	affinity for OTR (OTR; different species, including mouse)
NC(=O)CC[C@@H]1NC(=O)[C@H](Cc2ccccc2)NC(=O)[C@H](Cc2ccc(O)cc2)NC(=O)[C@@H](N)CSSC[C@@H](C(=O)N2CCC[C@H]2C(=O)N[C@@H](CCCN=C(N)N)C(=O)NCC(N)=O)NC(=O)[C@H](CC(N)=O)NC1=O [AVP, Arginine-Vasopressin]	did not rescue the phenotype	–	–	–	–	–	–	–
CCN(Cc1cccnc1)C(=O)c1ccc(Cl)c([C@]2(C)C(=O)N(Cc3ccc(OC)cc3OC)c3ccc(Cl)cc32)c1.Cl [SSR126768A, 4-chloro-3-[(3R)-(+)-5-chloro-1-(2,4-dimethoxybenzyl)-3-methyl-2-oxo-2,3-dihydro-1H-indol-3-yl]-N-ethyl-N-(3-pyridylmethyl)-benzamide, hydrochloride]	–	without inducing lethality or any strong secondary effect	24	all of them survived	48	54	high selectivity	high affinity
